From patent US20240109918A1, “HETEROCYCLIC COMPOUNDS AND USES THEREOF” (Kumquat Biosciences Inc., priority 2022, published 2024)

Experiments:
KRASwt = target: T1, KRASwt (Homo sapiens, UniProt P01116); assay: Bio-Biochem-PPI-HTRF Ras-SOS1 interaction assay (KRAS wt); assay type: biochemical; settings: 5 nM
T1 construct: made in house; host or cells: E. coli BL21 (DE3)
Outline: (§1)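 GST-tagged K-Ras (wt or G12D) with anti-GST-Eu(K) donor was mixed with His-hSOS1 and anti-6His-XL665 acceptor in HEPES pH 7.4/NaCl/DTT/BSA/Igepal buffer, with compound in duplicate from 10 μM down to 0.01 μM. After about 10 min or longer, HTRF 665/620 nm ratio gave IC50.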

KRASG12D = target: T2, KRASG12D (Homo sapiens, UniProt P01116, G12D); assay: Bio-Biochem-PPI-HTRF Ras-SOS1 interaction assay (KRAS G12D); assay type: biochemical; settings: 5 nM
T2 construct: made in house; host or cells: E. coli BL21 (DE3)
Outline: as §1

T2 sequence (P01116 1-188 isoform P01116-2 G12D): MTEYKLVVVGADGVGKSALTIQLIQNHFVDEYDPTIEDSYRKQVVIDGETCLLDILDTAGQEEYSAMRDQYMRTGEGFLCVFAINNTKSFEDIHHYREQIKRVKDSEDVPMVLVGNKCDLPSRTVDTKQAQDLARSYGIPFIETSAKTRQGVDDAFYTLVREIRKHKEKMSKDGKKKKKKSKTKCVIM
T1 sequence (P01116 1-188 isoform P01116-2): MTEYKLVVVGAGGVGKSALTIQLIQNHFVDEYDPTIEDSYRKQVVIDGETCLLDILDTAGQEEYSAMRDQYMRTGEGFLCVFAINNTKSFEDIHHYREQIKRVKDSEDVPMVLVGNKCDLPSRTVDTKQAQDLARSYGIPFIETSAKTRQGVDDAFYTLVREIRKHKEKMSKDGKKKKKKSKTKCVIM

Row | SMILES | IC50 (KRASwt) [µM] | IC50 (KRASG12D) [µM]
1 | N#Cc1c(N)sc2c(F)ccc(-c3c(Cl)cc4c(N5CCCCC6(CN(C(=O)C78CC(F)(C7)C8)C6)C5)nc(OC[C@@]56CCCN5C[C@H](F)C6)nc4c3F)c12 [compound 199, 2-amino-4-(6-chloro-8-fluoro-4-(2-(3-fluorobicyclo[1.1.1]pentane-1-carbonyl)-2,6-diazaspiro[3.6]decan-6-yl)-2-(((2R,7aS)-2-fluorotetrahydro-1H-pyrrolizin-7a(5H)-yl)methoxy)quinazolin-7-yl)-7-fluorobenzo[b]thiophene-3-carbonitrile] | < 5 | < 5
2 | CC1CCCC2(CN(C(=O)C3CC3(F)F)C2)CN1c1nc(OC[C@@]23CCCN2C[C@H](F)C3)nc2c(F)c(-c3ccc(F)c4sc(N)c(C#N)c34)c(Cl)cc12 (stereo partly drawn) [compound 288, 2-amino-4-(6-chloro-4-(2-(2,2-difluorocyclopropane-1-carbonyl)-7-methyl-2,6-diazaspiro[3.6]decan-6-yl)-8-fluoro-2-(((2R,7aS)-2-fluorotetrahydro-1H-pyrrolizin-7a(5H)-yl)methoxy)quinazolin-7-yl)-7-fluorobenzo[b]thiophene-3-carbonitrile] | < 5 | < 5
3 | N#Cc1c(N)sc2c(F)ccc(-c3c(Cl)cc4c(N5CCCCC6(CN(C(=O)C(F)(F)C(F)(F)F)C6)C5)nc(OC[C@@]56CCCN5C[C@H](F)C6)nc4c3F)c12 [compound 202, 2-amino-4-(6-chloro-8-fluoro-2-(((2R,7aS)-2-fluorotetrahydro-1H-pyrrolizin-7a(5H)-yl)methoxy)-4-(2-(2,2,3,3,3-pentafluoropropanoyl)-2,6-diazaspiro[3.6]decan-6-yl)quinazolin-7-yl)-7-fluorobenzo[b]thiophene-3-carbonitrile] | < 5 | < 5
4 | N#Cc1c(N)sc2c(F)ccc(-c3c(Cl)cc4c(N5CCCCC6(CN(C(=O)C7(O)COC7)C6)C5)nc(OC[C@@]56CCCN5C[C@H](F)C6)nc4c3F)c12 [compound 327, 2-amino-4-(6-chloro-8-fluoro-2-(((2R,7aS)-2-fluorotetrahydro-1H-pyrrolizin-7a(5H)-yl)methoxy)-4-(2-(3-hydroxyoxetane-3-carbonyl)-2,6-diazaspiro[3.6]decan-6-yl)quinazolin-7-yl)-7-fluorobenzo[b]thiophene-3-carbonitrile] | < 5 | < 5
5 | N#Cc1c(N)sc2c(F)ccc(-c3c(Cl)cc4c(N5CCCC6(CN(C(=O)C7CC7)C6)C5)nc(OC[C@@]56CCCN5C[C@H](F)C6)nc4c3F)c12 [compound 120, 2-amino-4-(6-chloro-4-(2-(cyclopropanecarbonyl)-2,6-diazaspiro[3.5]nonan-6-yl)-8-fluoro-2-(((2R,7aS)-2-fluorotetrahydro-1H-pyrrolizin-7a(5H)-yl)methoxy)quinazolin-7-yl)-7-fluorobenzo[b]thiophene-3-carbonitrile] | < 5 | < 5
6 | N#Cc1c(N)sc2c(F)ccc(-c3c(Cl)cc4c(N5CCCCC6(CN(C(=O)C7C8COCC87)C6)C5)nc(OC[C@@]56CCCN5C[C@H](F)C6)nc4c3F)c12 (stereo partly drawn) [compound 238, 4-(4-(2-(3-oxabicyclo[3.1.0]hexane-6-carbonyl)-2,6-diazaspiro [3.6]decan-6-yl)-6-chloro-8-fluoro-2-(((2R,7aS)-2-fluorotetrahydro-1H-pyrrolizin-7a(5H)-yl)methoxy)quinazolin-7-yl)-2-amino-7-fluorobenzo[b]thiophene-3-carbonitrile] | < 5 | < 5
7 | N#Cc1c(N)sc2c(F)ccc(-c3c(Cl)cc4c(N5CCCCC6(CN(C(=O)CN7CCOCC7=O)C6)C5)nc(OC[C@@]56CCCN5C[C@H](F)C6)nc4c3F)c12 [compound 326, 2-amino-4-(6-chloro-8-fluoro-2-(((2R,7aS)-2-fluorotetrahydro-1H-pyrrolizin-7a(5H)-yl)methoxy)-4-(2-(2-(3-oxomorpholino)acetyl)-2,6-diazaspiro[3.6]decan-6-yl)quinazolin-7-yl)-7-fluorobenzo[b]thiophene-3-carbonitrile] | < 5 | < 5
8 | CN(C)CCC(=O)N1CC2(C1)CN(c1nc(OC[C@@]34CCCN3C[C@H](F)C4)nc3c(F)c(-c4ccc(F)c5sc(N)c(C#N)c45)c(Cl)cc13)CCO2 [compound 312, 2-amino-4-(6-chloro-4-(2-(3-(dimethylamino)propanoyl)-5-oxa-2,8-diazaspiro[3.5]nonan-8-yl)-8-fluoro-2-(((2R,7aS)-2-fluorotetrahydro-1H-pyrrolizin-7a(5H)-yl)methoxy)quinazolin-7-yl)-7-fluorobenzo[b]thiophene-3-carbonitrile] | < 5 | < 5
9 | CN(C)C(=O)N1CC2(CCCN(c3nc(OC[C@@]45CCCN4C[C@H](F)C5)nc4c(F)c(-c5ccc(F)c6sc(N)c(C#N)c56)c(Cl)cc34)C2)C1 [compound 119, 6-(7-(2-amino-3-cyano-7-fluorobenzo[b]thiophen-4-yl)-6-chloro-8-fluoro-2-(((2R,7aS)-2-fluorotetrahydro-1H-pyrrolizin-7a(5H)-yl)methoxy)quinazolin-4-yl)-N,N-dimethyl-2,6-diazaspiro[3.5]nonane-2-carboxamide] | < 5 | < 5
10 | N#Cc1c(N)sc2c(F)ccc(-c3c(Cl)cc4c(N5CCCCC6(CN(C(=O)C7CC7(F)Cl)C6)C5)nc(OC[C@@]56CCCN5C[C@H](F)C6)nc4c3F)c12 (stereo partly drawn) [compound 336, 2-amino-4-(6-chloro-4-(2-(2-chloro-2-fluorocyclopropane-1-carbonyl)-2,6-diazaspiro[3.6]decan-6-yl)-8-fluoro-2-(((2R,7aS)-2-fluorotetrahydro-1H-pyrrolizin-7a(5H)-yl)methoxy)quinazolin-7-yl)-7-fluorobenzo[b]thiophene-3-carbonitrile] | < 5 | < 5
11 | N#Cc1c(N)sc2c(F)ccc(-c3c(Cl)cc4c(N5CCOCC6(CN(C(=O)C(F)Cl)C6)C5)nc(OC[C@@]56CCCN5C[C@H](F)C6)nc4c3F)c12 (stereo partly drawn) [compound 283, 2-amino-4-(6-chloro-4-(2-(2-chloro-2-fluoroacetyl)-6-oxa-2,9-diazaspiro[3.6]decan-9-yl)-8-fluoro-2-(((2R,7aS)-2-fluorotetrahydro-1H-pyrrolizin-7a(5H)-yl)methoxy)quinazolin-7-yl)-7-fluorobenzo[b]thiophene-3-carbonitrile] | < 5 | < 5
12 | N#Cc1c(N)sc2c(F)ccc(-c3c(Cl)cc4c(N5CCCCC6(CN(C(=O)C7C8CCOC87)C6)C5)nc(OC[C@@]56CCCN5C[C@H](F)C6)nc4c3F)c12 (stereo partly drawn) [compound 270, 4-(4-(2-(2-oxabicyclo[3.1.0]hexane-6-carbonyl)-2,6-diazaspiro [3.6]decan-6-yl)-6-chloro-8-fluoro-2-(((2R,7aS)-2-fluorotetrahydro-1H-pyrrolizin-7a(5H)-yl)methoxy)quinazolin-7-yl)-2-amino-7-fluorobenzo[b]thiophene-3-carbonitrile] | < 5 | < 5
13 | N#Cc1c(N)sc2c(F)ccc(-c3c(Cl)cc4c(N5CCCC6(CNC6)C5)nc(OC[C@@]56CCCN5C[C@H](F)C6)nc4c3F)c12 [compound 147, 2-amino-4-(6-chloro-8-fluoro-2-(((2R,7aS)-2-fluorotetrahydro-1H-pyrrolizin-7a(5H)-yl)methoxy)-4-(2,6-diazaspiro[3.5]nonan-6-yl)quinazolin-7-yl)-7-fluorobenzo[b]thiophene-3-carbonitrile] | < 5 | < 5
